Format: in vivo, rat
Details: liver of rats which died between D9 and D10 after consuming the 11.8 ppm bait
Description: The acetonitrile solution containing difethialone is analysed by high-pressure liquid chromatography on a LUX® Cellulose-3 chiral column (Phenomenex, Le Pecq, France) (150×2 mm, particle size of 3 μm) as described in point A2) above.
The values, expressed as micrograms of laevorotatory enantiomer of said hetero-stereoisomer (“DFN-Hetero-laevo”) per gram of liver, are given in table 3 below.

## O=c1sc2ccccc2c(O)c1C1CC(c2ccc(-c3ccc(Br)cc3)cc2)Cc2ccccc21 (stereo not shown) [Total difethialone, 3-(4′-bromobiphenyl-4-yl)-1-(4-hydroxythiocoumarin-3-yl)-1,2,3,4-tetrahydronaphthalene]
  Hepatic content, Mean: 11.3 µg/g

Source: patent publication US10501434B2, “Configurational stereoisomer of difethialone, composition and rodenticidal bait comprising same, and process for controlling target rodent pests” (priority 2015, dated 2019)
